From patent publication US11932624B2, “MDM2 degraders and uses thereof” (Kymera Therapeutics, Inc., priority 2020, dated 2024)
pIC50: −log10 of the molar value.

Tested on: RS411 cells
Assay: Cell Viability CTG Assay (CellTiter Glo) in RS411 cells
Format: cell-based
Conditions: Homo sapiens, RS4-11, 24 h, duration 1 day
Procedure: Example 23. Cell Viability CTG Assay
Day 0: Compounds or DMSO 60 nL were stamped to the cell plate as the platemap. RS411 cells were centrifuged at 800 rpm for 5 min, suspended with culture medium, and counted with Countess (Invitrogen). The cell density was adjusted to the recommend information. 30 μL of cell solution (1000 cells/well) was added to the assay plate as the platemap and 30 uL of media was added to column 2 and column 23 as the platemap. The plate was spun down briefly. The final concentration of the compounds started at 10 μM (3 fold dilution and 11 doses) and final DMSO concentration was 0.2%. The plate was spun down briefly and incubated at 37° C., 5% CO2 for 1-4 days.
30 μL CellTiter Glo reagent was added to each well and the plate was centrifuged at 1000 rpm for 30 sec. The plate was shaken for 1 min and centrifuged at 1000 rpm for 30 sec. The plate was incubated at RT for 10 min to stabilize the luminescent signal and the luminescence was read by EnVision.
The letter codes for IC50 indicate the concentration of compound required to affect 50% of cells: A (<0.05 μM), B (0.05-0.1 μM), C (0.1-0.5 μM), D (0.5-1.0 μM), and E (>1.0 μM).

pIC50	SMILES
7.00 to 7.30	Cn1c(=O)n(C2CCC(=O)NC2=O)c2cccc(C#C[C@@H]3CN(C(=O)c4ccc(NC(=O)[C@@H]5NC6(CCCCC6)[C@@]6(C(=O)Nc7cc(Cl)ccc76)[C@H]5c5cccc(Cl)c5F)cc4)CCO3)c21 (some centres unmarked) [I-47]
> 7.30	Cn1c(=O)n(C2CCC(=O)NC2=O)c2cccc(CCCC(=O)N3CCN(C(=O)c4ccc(NC(=O)[C@@H]5NC6(CCCCC6)[C@@]6(C(=O)Nc7cc(Cl)ccc76)[C@H]5c5cccc(Cl)c5F)cc4)CC3)c21 (some centres unmarked) [I-50]
> 7.30	Cn1c(=O)n(C2CCC(=O)NC2=O)c2cccc(C#CCCCNC(=O)c3ccc(NC(=O)[C@@H]4NC5(CCCCC5)[C@@]5(C(=O)Nc6cc(Cl)ccc65)[C@H]4c4cccc(Cl)c4F)cc3)c21 (some centres unmarked) [I-51]
> 7.30	Cn1c(=O)n(C2CCC(=O)NC2=O)c2cccc(C#CCN3CCC4(CC3)CN(C(=O)c3ccc(NC(=O)[C@@H]5NC6(CCCCC6)[C@@]6(C(=O)Nc7cc(Cl)ccc76)[C@H]5c5cccc(Cl)c5F)cc3)C4)c21 (some centres unmarked) [I-60]
7.00 to 7.30	CN(CCC#Cc1cccc2c1n(C)c(=O)n2C1CCC(=O)NC1=O)C(=O)c1ccc(NC(=O)[C@@H]2NC3(CCCCC3)[C@@]3(C(=O)Nc4cc(Cl)ccc43)[C@H]2c2cccc(Cl)c2F)cc1 (some centres unmarked) [I-62]

The next lines start with the compound.

SMILES	pIC50
Cn1c(=O)n(C2CCC(=O)NC2=O)c2cccc(C#CCNC(=O)c3ccc(NC(=O)[C@@H]4NC5(CCCCC5)[C@@]5(C(=O)Nc6cc(Cl)ccc65)[C@H]4c4cccc(Cl)c4F)cc3)c21 (some centres unmarked) [I-46]	> 7.30
Cn1c(=O)n(C2CCC(=O)NC2=O)c2ccc(C#CCCNC(=O)c3ccc(NC(=O)[C@@H]4NC5(CCCCC5)[C@@]5(C(=O)Nc6cc(Cl)ccc65)[C@H]4c4cccc(Cl)c4F)cc3)cc21 (some centres unmarked) [I-48]	> 7.30
Cn1c(=O)n(C2CCC(=O)NC2=O)c2cccc(CN3CCC(OC4CCN(C(=O)c5ccc(NC(=O)[C@@H]6NC7(CCCCC7)[C@@]7(C(=O)Nc8cc(Cl)ccc87)[C@H]6c6cccc(Cl)c6F)cc5)CC4)CC3)c21 (some centres unmarked) [I-49]	> 7.30
CN(CCCOCCCc1cccc2c1n(C)c(=O)n2C1CCC(=O)NC1=O)C(=O)c1ccc(NC(=O)[C@@H]2NC3(CCCCC3)[C@@]3(C(=O)Nc4cc(Cl)ccc43)[C@H]2c2cccc(Cl)c2F)cc1 (some centres unmarked) [I-52]	> 7.30
Cn1c(=O)n(C2CCC(=O)NC2=O)c2cccc(CCC3CC4(CCN(C(=O)c5ccc(NC(=O)[C@@H]6NC7(CCCCC7)[C@@]7(C(=O)Nc8cc(Cl)ccc87)[C@H]6c6cccc(Cl)c6F)cc5)CC4)C3)c21 (some centres unmarked) [I-53]	7.00 to 7.30
O=C1CCC(n2c(=O)oc3c(CCCOC4CCN(C(=O)c5ccc(NC(=O)[C@@H]6NC7(CCCCC7)[C@@]7(C(=O)Nc8cc(Cl)ccc87)[C@H]6c6cccc(Cl)c6F)cc5)CC4)cccc32)C(=O)N1 (some centres unmarked) [I-54]	7.00 to 7.30
Cn1c(=O)n(C2CCC(=O)NC2=O)c2cccc(N3CCC4(CCN(C(=O)c5ccc(NC(=O)[C@@H]6NC7(CCCCC7)[C@@]7(C(=O)Nc8cc(Cl)ccc87)[C@H]6c6cccc(Cl)c6F)cc5)CC4)CC3)c21 (some centres unmarked) [I-55]	7.00 to 7.30
CN(C[C@@H]1CN(CC#Cc2ccc3c(c2)n(C)c(=O)n3C2CCC(=O)NC2=O)CCO1)C(=O)c1ccc(NC(=O)[C@@H]2NC3(CCCCC3)[C@@]3(C(=O)Nc4cc(Cl)ccc43)[C@H]2c2cccc(Cl)c2F)cc1 (some centres unmarked) [I-56]	> 7.30
O=C1CCC(n2c(=O)oc3cc(CCCOCCOCCNC(=O)c4ccc(NC(=O)[C@@H]5NC6(CCCCC6)[C@@]6(C(=O)Nc7cc(Cl)ccc76)[C@H]5c5cccc(Cl)c5F)cc4)ccc32)C(=O)N1 (some centres unmarked) [I-57]	> 7.30
Cn1c(=O)n(C2CCC(=O)NC2=O)c2cccc(C3CCN(C(=O)c4ccc(NC(=O)[C@@H]5NC6(CCCCC6)[C@@]6(C(=O)Nc7cc(Cl)ccc76)[C@H]5c5cccc(Cl)c5F)cc4)CC3)c21 (some centres unmarked) [I-58]	> 7.30
Cn1c(=O)n(C2CCC(=O)NC2=O)c2cccc(NCC3CC4(C3)CN(C(=O)c3ccc(NC(=O)[C@@H]5NC6(CCCCC6)[C@@]6(C(=O)Nc7cc(Cl)ccc76)[C@H]5c5cccc(Cl)c5F)cc3)C4)c21 (some centres unmarked) [I-59]	> 7.30
Cn1c(=O)n(C2CCC(=O)NC2=O)c2cccc(CCN3CC4(CCN(C(=O)c5ccc(NC(=O)[C@@H]6NC7(CCCCC7)[C@@]7(C(=O)Nc8cc(Cl)ccc87)[C@H]6c6cccc(Cl)c6F)cc5)CC4)C3)c21 (some centres unmarked) [I-61]	> 7.30
